Laboratory results taken from patent US20260137677A1, “PROTACS USEFUL AGAINST THE MAIN PROTEASE SARS-COV-2” (Tocris Cookson Limited, priority 2022, published 2026).
pEC50, pIC50: −log10 of the molar value.

Tests used:
[1] = target: T1, recombinant SARS-CoV-2 main protease (Mpro) (Severe acute respiratory syndrome coronavirus 2, UniProt P0DTD1); assay: biochemical; details: FRET assay, Mpro 50 nM, substrate 10 μM
T1 construct: the main protease (Mpro; also called 3CLpro) which has an essential role in processing the polyproteins

[2] = tested on: SARS-CoV-2 (SARS-CoV2/ZG/297-20) in Vero E6 cells; assay: microbe, parasite or virus in culture; assay type: cell-based; details: for inhibition at 10 µM / inhibition at 50 µM: Severe acute respiratory syndrome coronavirus 2, Vero C1008, 72 h; for inhibition at 10 µM: read-out: Antiviral Activity 10 uM; for inhibition at 50 µM: read-out: Antiviral Activity 50 uM; for pEC50: Severe acute respiratory syndrome coronavirus 2, Vero C1008, Vero E6 infected with SARS-CoV-2 at an MOI of 0.05, read-out: EC50 in antiviral assay

| Structure (SMILES) | pIC50 [1] | inhibition at 10 µM [2] [%] | inhibition at 50 µM [2] [%] | pEC50 [2] |
| --- | --- | --- | --- | --- |
| O=C1CCC(N2C(=O)c3cc(F)c(N4CCN(C(=O)[C@H](NC(=O)[C@@H](c5cccnc5)N(C(=O)c5ccco5)c5ccc(-c6ccccc6)cc5)c5ccccc5)CC4)cc3C2=O)C(=O)N1 (single isomer, unassigned) [TS467] | > 7.00 | < 25 | < 25 |  |
| O=C1CCC(N2C(=O)c3ccc(N4CCN(CC5CCN(C(=O)[C@H](NC(=O)[C@@H](c6cccnc6)N(C(=O)c6ccco6)c6ccc(-c7ccccc7)cc6)c6ccccc6)CC5)CC4)cc3C2=O)C(=O)N1 (single isomer, unassigned) [TS470] | > 7.00 | < 25 | < 50 |  |
| O=C1CCC(N2C(=O)c3cc(F)c(N4CCN(CC5CCN(C(=O)[C@H](NC(=O)[C@@H](c6cccnc6)N(C(=O)c6ccco6)c6ccc(-c7ccccc7)cc6)c6ccccc6)CC5)CC4)cc3C2=O)C(=O)N1 (single isomer, unassigned) [TS471] | > 6.00 | < 25 | < 25 |  |
| O=C(COc1ccc(C2CCC(=O)NC2=O)cc1)NCCNC(=O)[C@H](NC(=O)[C@@H](c1cccnc1)N(C(=O)c1ccco1)c1ccc(-c2ccccc2)cc1)c1ccccc1 (single isomer, unassigned) [TS476] | > 7.00 | < 0 | < 0 |  |
| O=C(COc1ccc(C2CCC(=O)NC2=O)cc1)NCCCCNC(=O)[C@H](NC(=O)[C@@H](c1cccnc1)N(C(=O)c1ccco1)c1ccc(-c2ccccc2)cc1)c1ccccc1 (single isomer, unassigned) [TS477] | > 7.00 | < 0 | < 0 |  |
| O=C1CCC(N2C(=O)c3cccc(OCCCCCCC(=O)Nc4cccn([C@@H](CC5CC5)C(=O)N[C@@H](C[C@@H]5CCNC5=O)C(=O)C(=O)NCc5ccccc5)c4=O)c3C2=O)C(=O)N1 (some centres unmarked) [BT150] | > 6.00 | < 25 | < 25 |  |
| O=C1CCC(N2C(=O)c3cccc(OCCCCCCCC(=O)Nc4cccn([C@@H](CC5CC5)C(=O)N[C@@H](C[C@@H]5CCNC5=O)C(=O)C(=O)NCc5ccccc5)c4=O)c3C2=O)C(=O)N1 (some centres unmarked) [BT152] | > 6.00 | < 25 | < 50 |  |
| O=C1CCC(N2C(=O)c3cccc(OCCCCCCNC(=O)c4ccc5cncc(N6C(=O)NC7(CC(c8ccccc8Cl)C7)C6=O)c5c4)c3C2=O)C(=O)N1 (centres unmarked) [Compound C10778L, 4-(2-(2-chlorophenyl)-6,8-dioxo-5,7-diazaspiro[3.4]octan-7-yl)-N-(6-((2-(2,6-dioxopiperidin-3-yl)-1,3-dioxoisoindolin-4-yl)oxy)hexyl)isoquinoline-6-carboxamide] | > 7.00 | < 25 | < 25 |  |
| O=C1CCC(N2C(=O)c3cccc(OCCNC(=O)c4ccc5cncc(N6C(=O)NC7(CC(c8ccccc8Cl)C7)C6=O)c5c4)c3C2=O)C(=O)N1 (centres unmarked) [Compound C10778P, 4-(2-(2-chlorophenyl)-6,8-dioxo-5,7-diazaspiro[3.4]octan-7-yl)-N-(2-((2-(2,6-dioxopiperidin-3-yl)-1,3-dioxoisoindolin-4-yl)oxy)ethyl)isoquinoline-6-carboxamide] | > 7.00 | > 75 | > 75 | 5.31 |
| O=C1CCC(N2C(=O)c3ccc(NCCCCCCNC(=O)c4ccc5cncc(N6C(=O)NC7(CC(c8ccccc8Cl)C7)C6=O)c5c4)cc3C2=O)C(=O)N1 (centres unmarked) [Compound C10778Q, 4-(2-(2-chlorophenyl)-6,8-dioxo-5,7-diazaspiro[3.4]octan-7-yl)-N-(6-((2-(2,6-dioxopiperidin-3-yl)-1,3-dioxoisoindolin-5-yl)amino)hexyl)isoquinoline-6-carboxamide] | > 6.00 | < 0 | < 25 |  |
| O=C(COc1ccc(C2CCC(=O)NC2=O)cc1)NCCCCCNC(=O)c1ccc2cncc(N3C(=O)NC4(CC(c5ccccc5Cl)C4)C3=O)c2c1 (centres unmarked) [Compound C10778R, 4-(2-(2-chlorophenyl)-6,8-dioxo-5,7-diazaspiro[3.4]octan-7-yl)-N-(5-(2-(4-(2,6-dioxopiperidin-3-yl)phenoxy)acetamido)pentyl)isoquinoline-6-carboxamide] | > 7.00 | > 75 | > 75 | 5.31 |
| O=C1CCC(N2C(=O)c3cccc(OCCOCCOCCOCCNC(=O)c4ccc5cncc(N6C(=O)NC7(CC(c8ccccc8Cl)C7)C6=O)c5c4)c3C2=O)C(=O)N1 (centres unmarked) [Compound C10778S, 4-(2-(2-chlorophenyl)-6,8-dioxo-5,7-diazaspiro[3.4]octan-7-yl)-N-(2-(2-(2-(2-((2-(2,6-dioxopiperidin-3-yl)-1,3-dioxoisoindolin-4-yl)oxy)ethoxy)ethoxy)ethoxy)ethyl)isoquinoline-6-carboxamide] | > 7.00 | < 25 | > 75 |  |
| O=C1CCC(N2C(=O)c3cccc(OCCCCCCCCNC(=O)c4ccc5c(N6C(=O)NC7(CC(c8ccccc8Cl)C7)C6=O)cncc5c4)c3C2=O)C(=O)N1 (centres unmarked) [Compound C10778T, 4-(2-(2-chlorophenyl)-6,8-dioxo-5,7-diazaspiro[3.4]octan-7-yl)-N-(8-((2-(2,6-dioxopiperidin-3-yl)-1,3-dioxoisoindolin-4-yl)oxy)octyl)isoquinoline-7-carboxamide] | > 7.00 | < 0 | < 0 |  |
| O=C1CCC(N2C(=O)c3cccc(OCCCCNC(=O)c4ccc5c(N6C(=O)NC7(CC(c8ccccc8Cl)C7)C6=O)cncc5c4)c3C2=O)C(=O)N1 (centres unmarked) [Compound C10778U, 4-(2-(2-chlorophenyl)-6,8-dioxo-5,7-diazaspiro[3.4]octan-7-yl)-N-(4-((2-(2,6-dioxopiperidin-3-yl)-1,3-dioxoisoindolin-4-yl)oxy)butyl)isoquinoline-7-carboxamide] | > 7.00 | < 25 | < 25 |  |
| O=C1CCC(N2C(=O)c3cccc(OCCNC(=O)c4ccc5c(N6C(=O)NC7(CC(c8ccccc8Cl)C7)C6=O)cncc5c4)c3C2=O)C(=O)N1 (centres unmarked) [Compound C10778V, 4-(2-(2-chlorophenyl)-6,8-dioxo-5,7-diazaspiro[3.4]octan-7-yl)-N-(2-((2-(2,6-dioxopiperidin-3-yl)-1,3-dioxoisoindolin-4-yl)oxy)ethyl)isoquinoline-7-carboxamide] | > 7.00 | < 25 | < 25 |  |
| O=C1CCC(N2C(=O)c3ccc(NCCCCCCNC(=O)c4ccc5c(N6C(=O)NC7(CC(c8ccccc8Cl)C7)C6=O)cncc5c4)cc3C2=O)C(=O)N1 (centres unmarked) [Compound C10778W, 4-(2-(2-chlorophenyl)-6,8-dioxo-5,7-diazaspiro[3.4]octan-7-yl)-N-(6-((2-(2,6-dioxopiperidin-3-yl)-1,3-dioxoisoindolin-5-yl)amino)hexyl)isoquinoline-7-carboxamide] | > 6.00 | < 0 | < 0 |  |
| O=C(COc1ccc(C2CCC(=O)NC2=O)cc1)NCCCCCNC(=O)c1ccc2c(N3C(=O)NC4(CC(c5ccccc5Cl)C4)C3=O)cncc2c1 (centres unmarked) [Compound C10778X, 4-(2-(2-chlorophenyl)-6,8-dioxo-5,7-diazaspiro[3.4]octan-7-yl)-N-(5-(2-(4-(2,6-dioxopiperidin-3-yl)phenoxy)acetamido)pentyl)isoquinoline-7-carboxamide] | > 7.00 | < 0 | < 0 |  |
| O=C1CCC(N2C(=O)c3cccc(OCCOCCOCCOCCNC(=O)c4ccc5c(N6C(=O)NC7(CC(c8ccccc8Cl)C7)C6=O)cncc5c4)c3C2=O)C(=O)N1 (centres unmarked) [Compound C10778Y, 4-(2-(2-chlorophenyl)-6,8-dioxo-5,7-diazaspiro[3.4]octan-7-yl)-N-(2-(2-(2-(2-((2-(2,6-dioxopiperidin-3-yl)-1,3-dioxoisoindolin-4-yl)oxy)ethoxy)ethoxy)ethoxy)ethyl)isoquinoline-7-carboxamide] | > 7.00 | < 25 | < 50 |  |
| O=C1CCC(N2C(=O)c3cccc(OCCCCNC(=O)c4ccc5cncc(N6C(=O)NC7(CC(c8ccccc8Cl)C7)C6=O)c5c4)c3C2=O)C(=O)N1 (centres unmarked) [Compound C107780, 4-(2-(2-chlorophenyl)-6,8-dioxo-5,7-diazaspiro[3.4]octan-7-yl)-N-(4-((2-(2,6-dioxopiperidin-3-yl)-1,3-dioxoisoindolin-4-yl)oxy)butyl)isoquinoline-6-carboxamide] | > 7.00 | < 25 | > 75 |  |
| O=C1CCC(N2C(=O)c3cccc(NCCCNC(=O)[C@@H](NC(=O)C(c4cccnc4)N(C(=O)c4ccco4)c4ccc5c(c4)oc4ccccc45)c4ccccc4)c3C2=O)C(=O)N1 (some centres unmarked) [TS284F2] | > 5.00 | < 0 | < 0 |  |
| O=C1CCC(N2C(=O)c3cccc(NCCCCCCNC(=O)[C@@H](NC(=O)C(c4cccnc4)N(C(=O)c4ccco4)c4ccc5c(c4)oc4ccccc45)c4ccccc4)c3C2=O)C(=O)N1 (some centres unmarked) [TS296] | < 4.60 | < 0 | < 0 |  |
